Measurements published in US9963445B2, “Chemical compounds” (SYNGENTA PARTICIPATIONS AG, priority 2013, dated 2018).

Experiments:
Assay type in all cases: in vivo
zea mays [1] = test: Post-emergence herbicidal activity, glasshouse pot test; parameters: key: 0 = no damage to plant, 5 = total damage to plant; settings: Application post-emergence, rate 1000 g/ha, evaluated after 13 days
In short: (§1)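 Seeds sown in standard soil in pots, grown 8 days in glasshouse (24/16 °C day/night, 14 h light, 65% humidity), then sprayed with aqueous solution from active ingredient formulated in acetone/water (50:50) with 0.5% Tween 20. Plants regrown under same conditions, watered twice daily; damage scored after 13 days (0 none–5 total).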

Echinochloa crus-galli [2] = test: as above; parameters: key: 0 = no damage to plant, 5 = total damage to plant; settings: Application post-emergence, rate 1000 g/ha, evaluated after 13 days
In short: as §1

Alopecurus myosuroides [3] = test: as above; parameters: key: 0 = no damage to plant, 5 = total damage to plant; settings: Application post-emergence, rate 1000 g/ha, evaluated after 13 days
In short: as §1

Setaria faberi [4] = test: as above; parameters: key: 0 = no damage to plant, 5 = total damage to plant; settings: Application post-emergence, rate 1000 g/ha, evaluated after 13 days
In short: as §1

Amaranthus retroflexus [5] = test: as above; parameters: key: 0 = no damage to plant, 5 = total damage to plant; settings: Application post-emergence, rate 1000 g/ha, evaluated after 13 days
In short: as §1

Abutilon theophrasti [6] = test: as above; parameters: key: 0 = no damage to plant, 5 = total damage to plant; settings: Application post-emergence, rate 1000 g/ha, evaluated after 13 days
In short: as §1

zea mays [7] = test: Pre-emergence herbicidal activity, glasshouse pot test; settings: pre-emergence spray, rate 1000 g/ha, evaluated after 13 days, scale 0-5
In short: (§2)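 Damage score 0–5 (5 = total damage) read 13 d after spraying. Pots sown, sprayed pre-emergence at day 1 with aqueous spray from acetone/water 50:50 + 0.5% Tween 20 formulation; glasshouse 24/16 °C, 14 h light, 65% RH.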

Echinochloa crus-galli [8] = test: as above; settings: pre-emergence spray, rate 1000 g/ha, evaluated after 13 days, scale 0-5
In short: as §2

Alopecurus myosuroides [9] = test: as above; settings: pre-emergence spray, rate 1000 g/ha, evaluated after 13 days, scale 0-5
In short: as §2

Setaria faberi [10] = test: as above; settings: pre-emergence spray, rate 1000 g/ha, evaluated after 13 days, scale 0-5
In short: as §2

Amaranthus retroflexus [11] = test: as above; settings: pre-emergence spray, rate 1000 g/ha, evaluated after 13 days, scale 0-5
In short: as §2

Abutilon theophrasti [12] = test: as above; settings: pre-emergence spray, rate 1000 g/ha, evaluated after 13 days, scale 0-5
In short: as §2

Row | Compound | ZEAMX herbicidal damage score (zea mays [1]) | ECHCG herbicidal damage score (Echinochloa crus-galli [2]) | ALOMY herbicidal damage score (Alopecurus myosuroides [3]) | SETFA herbicidal damage score (Setaria faberi [4]) | AMARE herbicidal damage score (Amaranthus retroflexus [5]) | ABUTH herbicidal damage score (Abutilon theophrasti [6]) | ZEAMX damage score, application pre-emergence (zea mays [7]) | ECHCG damage score, application pre-emergence (Echinochloa crus-galli [8]) | ALOMY damage score, application pre-emergence (Alopecurus myosuroides [9]) | SETFA damage score, application pre-emergence (Setaria faberi [10]) | AMARE damage score, application pre-emergence (Amaranthus retroflexus [11]) | ABUTH damage score, application pre-emergence (Abutilon theophrasti [12])
1 | CCN(CC)C(=O)c1cnc(N2C(=O)C(OC)=C(C)C2O)cc1C(F)(F)F (stereo not drawn) [AI9] | 4 | 5 | 5 | 5 | 5 | 5 | 3 | 5 | 4 | 4 | 5 | 5
2 | C#CCNC(=O)c1cnc(N2C(=O)C(OC)=C(C)C2O)cc1C(F)(F)F (stereo not drawn) [AI10] | 5 | 5 | 5 | 5 | 5 | 4 | 4 | 5 | 4 | 5 | 5 | 5
3 | COC1=C(C)C(O)N(c2cc(C(F)(F)F)c(C(=O)N(C)C)cn2)C1=O (stereo not drawn) [AI11] | 4 | 5 | 5 | 5 | 5 | 5 | 4 | 4 | 4 | 4 | 5 | 5
4 | COC1=C(C)C(O)N(c2cc(C(F)(F)F)c(C(=O)N(C)OC)cn2)C1=O (stereo not drawn) [AI12] | 5 | 5 | 5 | 5 | 5 | 5 | 4 | 4 | 4 | 4 | 5 | 5
5 | COC1=C(C)C(O)N(c2cc(C(F)(F)F)c(-c3cncnc3)cn2)C1=O (stereo not drawn) [AI13] | 4 | 5 | 5 | 5 | 5 | 5 | 3 | 3 | 3 | 2 | 4 | 2
6 | COC1=C(C)C(O)N(c2cc(C(F)(F)F)c(-c3cnc(OC)nc3)cn2)C1=O (stereo not drawn) [AI14] | 3 | 5 | 4 | 5 | 5 | 5 | 1 | 2 | 2 | 3 | 5 | 1
7 | COC1=C(C)C(O)N(c2cc(C(F)(F)F)c(OC)cn2)C1=O (stereo not drawn) [AI15] | 4 | 5 | 5 | 5 | 5 | 5 | 3 | 4 | 4 | 5 | 5 | 2
8 | COC1=C(C)C(O)N(c2cc(C(F)(F)Cl)ccn2)C1=O (stereo not drawn) [AI16] | 3 | 5 | 4 | 5 | 5 | 5 | 2 | 5 | 3 | 5 | 5 | 1
9 | COC1=C(C)C(O)N(c2cc(C(C)F)ccn2)C1=O (stereo not drawn) [AI17] | 3 | 5 | 5 | 5 | 5 | 5 | 4 | 5 | 4 | 5 | 5 | 5
10 | CCOC(=O)c1cnc(N2C(=O)C(OC)=C(C)C2O)cc1Cl (stereo not drawn) [AI19] | 1 | 3 | 1 | 5 | 5 | 4 | 0 | 2 | 1 | 1 | 2 | 0
11 | CCc1cc(N2C(=O)C(OC)=C(C)C2O)ncc1Br (stereo not drawn) [AI22] | 1 | 5 | 4 | 5 | 5 | 4 | 1 | 4 | 3 | 2 | 5 | 1
12 | COC1=C(C)C(O)N(c2cc(F)ccn2)C1=O (stereo not drawn) [AI23] | 3 | 5 | 5 | 5 | 5 | 5 | 1 | 5 | 3 | 4 | 5 | 1
13 | COC1=C(C)C(O)N(c2ccc(C(=O)NC(C)(C)C)cn2)C1=O (stereo not drawn) [AI24] | 4 | 5 | 4 | 5 | 5 | 4 | 1 | 4 | 3 | 4 | 5 | 4
14 | COC1=C(C)C(O)N(c2ccc(C(=O)NC(C)(C)C#N)cn2)C1=O (stereo not drawn) [AI25] | 3 | 5 | 5 | 5 | 5 | 5 | 2 | 3 | 4 | 4 | 5 | 4
15 | COC1=C(C)C(O)N(c2ccc(NC(=O)C(C)(C)C)cn2)C1=O (stereo not drawn) [AI26] | 5 | 5 | 5 | 5 | 5 | 5 | 2 | 5 | 4 | 5 | 5 | 5
16 | COC1=C(C)C(O)N(c2ccc(N)cn2)C1=O (stereo not drawn) [AI28] | 1 | 1 | 1 | 1 | 1 | 1 | 1 | 0 | 1 | 1 | 1 | 2
